For the test, the system named is Isolated medial neurons from Aplysia oculifera pleuropedal ganglia. It counts as cell-based.

Here are results for 1 molecule from patent publication US6624288B1 (priority 1997, dated 2003).

With `NC1=N[C@H](O)[C@H]2[C@H]3O[C@]4(O)O[C@@H]([C@@H](O)[C@@]2(N1)[C@@H]4O)[C@]3(O)CO` [tetrodotoxin], the “effect on TxI-induced spike prolongation” value is “reduced the TxI-induced spike prolongation”.
